Assays:
[1] = molecular target: Human recombinant Acetyl-CoA Carboxylase 2 (ACC2) (Homo sapiens, UniProt O00763); assay: Assay Y: ACC2 inhibition, inorganic phosphate (Malachite Green); format: biochemical; conditions: Assay Y: room temperature, 3 hr, 15 min preincubation
Description: (§1) Preincubation of 6 μL enzyme together with 0.3 μL compound for 15 min was done before the reaction was initiated by the addition of 4 μL substrate. […] After 3 hr the reaction was stopped by addition of 60 μL of water followed by 30 μL Malachite Green solution. The Malachite Green solution was prepared by mixing 16.4 mL ammonium molybdate solution (7.5%), 1.64 mL Tween (11%) with 82 mL Malachite Green/H2SO4-solution (0.7 g Malachite Green to 1000 mL of 10% (v/v) H2SO4). Plates were left for 10 min at room temperature before reading the absorbance at 670 nm. All compounds were tested in triplicate at 10 different concentrations. Control compound (0, 50 and 100% effect) was included on each plate. […] An IC50 value was derived by non-linear regression curve fitting using the following equation: […]))) where A is the non-specific binding, B is the total binding, C is the IC50 and D is the slope. Saturation binding Kd and Bmax were derived using the equation y=((B1 max*x)/(Kd+x)).

[2] = molecular target: Human recombinant Acetyl-CoA Carboxylase 1 (ACC1) (Homo sapiens, UniProt Q13085); assay: Assay Y: ACC1 inhibition, inorganic phosphate (Malachite Green); format: biochemical; conditions: Assay Y: room temperature, 3 hr, 15 min preincubation
Description: as §1

Sequence of Human recombinant Acetyl-CoA Carboxylase 2 (ACC2) (O00763 whole entry): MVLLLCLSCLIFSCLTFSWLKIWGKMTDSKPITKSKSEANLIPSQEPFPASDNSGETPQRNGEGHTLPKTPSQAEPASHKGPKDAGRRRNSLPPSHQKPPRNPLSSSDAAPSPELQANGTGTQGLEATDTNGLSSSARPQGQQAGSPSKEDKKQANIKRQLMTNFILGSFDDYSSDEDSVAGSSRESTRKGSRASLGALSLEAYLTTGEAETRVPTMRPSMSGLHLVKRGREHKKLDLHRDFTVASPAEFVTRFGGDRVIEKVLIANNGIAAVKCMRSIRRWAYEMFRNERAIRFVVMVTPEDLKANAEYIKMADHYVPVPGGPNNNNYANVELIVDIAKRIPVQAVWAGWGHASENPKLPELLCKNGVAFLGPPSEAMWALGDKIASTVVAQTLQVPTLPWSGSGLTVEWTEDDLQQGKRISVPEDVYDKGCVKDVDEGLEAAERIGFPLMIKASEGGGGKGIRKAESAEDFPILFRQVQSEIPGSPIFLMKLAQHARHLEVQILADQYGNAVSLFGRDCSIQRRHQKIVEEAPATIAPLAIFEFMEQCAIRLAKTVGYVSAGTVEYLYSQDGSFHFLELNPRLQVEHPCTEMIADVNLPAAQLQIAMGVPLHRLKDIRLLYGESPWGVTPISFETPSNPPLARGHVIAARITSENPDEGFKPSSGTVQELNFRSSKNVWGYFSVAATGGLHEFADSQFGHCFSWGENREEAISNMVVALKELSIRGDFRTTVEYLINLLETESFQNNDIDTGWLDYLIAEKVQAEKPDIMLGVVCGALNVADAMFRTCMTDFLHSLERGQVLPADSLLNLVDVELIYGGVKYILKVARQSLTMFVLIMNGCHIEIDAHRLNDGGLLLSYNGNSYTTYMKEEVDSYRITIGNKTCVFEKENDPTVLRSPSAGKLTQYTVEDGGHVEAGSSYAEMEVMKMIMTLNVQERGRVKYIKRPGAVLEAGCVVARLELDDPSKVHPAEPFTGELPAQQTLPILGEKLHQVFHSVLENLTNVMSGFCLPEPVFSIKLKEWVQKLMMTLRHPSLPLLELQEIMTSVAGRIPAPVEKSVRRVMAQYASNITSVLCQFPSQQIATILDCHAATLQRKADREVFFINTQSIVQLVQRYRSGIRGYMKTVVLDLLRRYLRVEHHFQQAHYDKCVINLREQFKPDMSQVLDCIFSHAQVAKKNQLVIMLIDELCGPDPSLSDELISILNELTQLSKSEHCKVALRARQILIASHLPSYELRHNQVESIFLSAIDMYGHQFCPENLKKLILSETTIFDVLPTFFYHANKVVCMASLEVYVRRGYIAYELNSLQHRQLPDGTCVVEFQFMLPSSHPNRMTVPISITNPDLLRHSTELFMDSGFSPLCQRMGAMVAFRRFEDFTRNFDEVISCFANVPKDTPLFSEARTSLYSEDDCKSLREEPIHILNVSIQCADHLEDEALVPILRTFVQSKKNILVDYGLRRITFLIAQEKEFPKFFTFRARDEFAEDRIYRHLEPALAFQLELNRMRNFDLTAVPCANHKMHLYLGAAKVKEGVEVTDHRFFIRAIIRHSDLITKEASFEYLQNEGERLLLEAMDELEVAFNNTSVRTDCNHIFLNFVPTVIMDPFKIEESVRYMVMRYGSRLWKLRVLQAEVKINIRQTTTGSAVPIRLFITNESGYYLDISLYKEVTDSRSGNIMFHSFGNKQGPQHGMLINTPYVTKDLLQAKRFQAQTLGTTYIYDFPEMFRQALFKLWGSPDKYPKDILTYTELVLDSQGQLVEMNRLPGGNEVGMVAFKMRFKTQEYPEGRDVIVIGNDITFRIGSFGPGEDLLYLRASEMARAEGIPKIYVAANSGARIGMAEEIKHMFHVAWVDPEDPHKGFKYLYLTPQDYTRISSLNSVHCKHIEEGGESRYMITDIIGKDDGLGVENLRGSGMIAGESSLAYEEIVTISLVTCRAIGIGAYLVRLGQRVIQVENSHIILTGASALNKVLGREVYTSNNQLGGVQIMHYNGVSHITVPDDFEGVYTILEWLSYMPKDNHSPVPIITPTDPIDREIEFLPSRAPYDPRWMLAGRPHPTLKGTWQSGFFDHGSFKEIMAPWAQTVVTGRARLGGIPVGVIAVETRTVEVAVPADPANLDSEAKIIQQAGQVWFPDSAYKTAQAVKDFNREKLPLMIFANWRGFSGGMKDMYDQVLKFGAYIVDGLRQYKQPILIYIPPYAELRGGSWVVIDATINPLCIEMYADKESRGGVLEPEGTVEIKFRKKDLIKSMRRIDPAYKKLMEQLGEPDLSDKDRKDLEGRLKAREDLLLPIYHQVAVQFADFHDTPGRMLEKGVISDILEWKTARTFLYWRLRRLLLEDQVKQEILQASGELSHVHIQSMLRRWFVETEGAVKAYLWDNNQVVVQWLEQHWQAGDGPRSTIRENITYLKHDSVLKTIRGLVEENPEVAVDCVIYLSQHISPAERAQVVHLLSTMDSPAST

For `CC(C)(C)OC(=O)NC[C@H]1CC[C@H](CNS(=O)(=O)c2cccc(-c3ccccc3)c2)CC1` [Example 63, tert-Butyl [(trans-4-{[(biphenyl-3-ylsulfonyl)amino]methyl}cyclohexyl)methyl]-carbamate], the IC50 [1] was 2830 nM and the IC50 [2] was 4580 nM.

`NS(=O)(=O)c1ccc(-c2cc(C(=O)NC[C@H]3CC[C@H](CNC(=O)OC4CCOCC4)CC3)c3ccccc3n2)cc1` [Example 138, Tetrahydro-2H-pyran-4-yl[(trans-4-{[({2-[4-(aminosulfonyl)phenyl]-quinolin-4-yl}carbonyl)amino]-methyl}cyclohexyl)-methyl]carbamate] showed an IC50 [1] of 710 nM and an IC50 [2] of 3760 nM.

Compound `CC(C)(C)OC(=O)NC[C@H]1CC[C@H](CNC(=O)c2cc(-c3cccnc3)nc3ccccc23)CC1` [Example 16, tert-Butyl {[trans-4-({[(2-pyridin-3-ylquinolin-4-yl)carbonyl]amino}methyl)cyclo-hexyl]methyl}carbamate] has an IC50 [1] of 320 nM and an IC50 [2] of 2030 nM.

Work on `CCCCN(C[C@H]1CC[C@H](CNC(=O)OC(C)(C)C)CC1)S(=O)(=O)c1ccc2ccccc2c1` [Example 85, tert-Butyl [(trans-4-{[butyl(2-naphthylsulfonyl)amino]methyl}cyclohexyl)methyl]-carbamate] yielded an IC50 [1] of 6690 nM and an IC50 [2] of over 20000 nM.

With `CC(C)(C)OC(=O)NC[C@H]1CC[C@H](CNS(=O)(=O)c2cccc3cnccc23)CC1` [Example 76, tert-Butyl [(trans-4-{[(isoquinolin-5-ylsulfonyl)amino]methyl}cyclohexyl)-methyl]carbamate] the IC50 [1] was 3620 nM and the IC50 [2] was over 20000 nM.

`CC(C)(C)OC(=O)NC[C@H]1CC[C@H](CNC(=O)c2cc(-c3ccc(CCN)cc3)nc3ccccc23)CC1` [Example 102, tert-Butyl [(trans-4-{[({2-[4-(2-aminoethyl)phenyl]quinolin-4-yl}carbonyl)amino]-methyl}cyclohexyl)methyl]carbamate] gave an IC50 [1] of 20 nM and an IC50 [2] of 170 nM.

Compound `CC(C)(C)OC(=O)NC[C@H]1CC[C@H](CNC(=O)c2cc(N3CCC(CO)CC3)nc3ccccc23)CC1` [Example 188, tert-Butyl[(trans-4-{[({2-[4-(hydroxymethyl)-piperidin-1-yl]quinolin-4-yl}carbonyl)amino]-methyl}cyclohexyl)-methyl]carbamate] has an IC50 [1] of 270 nM and an IC50 [2] of 5640 nM.

`CC(C)(C)OC(=O)NC[C@H]1CC[C@H](CNC(=O)c2cc(Cl)nc3ccccc23)CC1` [Example 35, tert-butyl {[trans-4-({[(2-chloroquinolin-4-yl)carbonyl]amino}methyl)cyclohexyl]-methyl}carbamate] gave an IC50 [1] of 3840 nM and an IC50 [2] of 9960 nM.

Work on `C[C@H](CO)Nc1ccc(-c2cc(C(=O)NC[C@H]3CC[C@H](CNC(=O)OC(C)(C)C)CC3)c3ccccc3n2)cn1` [Example 149, tert-Butyl({trans-4-[({[2-(6-{[(1R)-2-hydroxy-1-methylethyl]amino}-pyridin-3-yl)quinolin-4-yl]carbonyl}amino)-methyl]cyclohexyl}-methyl)carbamate] yielded an IC50 [1] of 50 nM and an IC50 [2] of 390 nM.

Compound `CCOC(=O)NC[C@H]1CC[C@H](CNC(=O)c2cc(-c3ccc(N4CCN(C)CC4)nc3)nc3ccccc23)CC1` [Example 119, Ethyl[(trans-4-{[({2-[6-(4-methylpiperazin-1-yl)pyridin-3-yl]quinolin-4-yl}carbonyl)amino]methyl}cyclohexyl)methyl]carbamate] has an IC50 [1] of 720 nM and an IC50 [2] of 2260 nM.

`O=C(NC[C@H]1CC[C@H](CNC(=O)c2cc(-c3ccncc3)nc3ccccc23)CC1)OC1CCCC1` [Example 56, Cyclopentyl {[trans-4-({[(2-pyridin-4-ylquinolin-4-yl)carbonyl]amino}methyl)cyclo-hexyl]methyl}carbamate] was tested, and the IC50 [1] was 400 nM and the IC50 [2] was 1210 nM.

With `CC(C)(C)OC(=O)NC[C@H]1CC[C@H](CNC(=O)c2cc(-c3ccc(CN)cc3)ncc2Cl)CC1` [Example 37, tert-Butyl ({trans-4-[({2-[4-(aminomethyl)phenyl]-5-chloroisonicotinoyl}amino)-methyl]cyclohexyl}methyl)carbamate] the IC50 [1] was 470 nM and the IC50 [2] was 3690 nM.

With `CC(C)(C)OC(=O)NC[C@H]1CC[C@H](CNC(=O)c2ccnc(-c3ccccc3)c2)CC1` [Example 41, tert-Butyl [(trans-4-{[(2-phenylisonicotinoyl)amino]methyl}cyclohexyl)methyl]-carbamate] the IC50 [1] was 4540 nM and the IC50 [2] was 6630 nM.

For `CC(C)(C)NC(=O)NC[C@H]1CC[C@H](CNC(=O)c2cc(-c3ccncc3)nc3ccccc23)CC1` [Example 97, N-[(trans-4-{[(tert-Butylcarbamoyl)amino]methyl}cyclohexyl)methyl]-2-pyridin-4-ylquinoline-4-carboxamide], the IC50 [1] was 6140 nM and the IC50 [2] was 18300 nM.

For `COC(=O)NCc1ccc(-c2cc(C(=O)NC[C@H]3CC[C@H](CNC(=O)OC(C)(C)C)CC3)c3ccccc3n2)cc1` [Example 104, Methyl [4-(4-{[(trans-4-{[(tert-butoxycarbonyl)amino]methyl}cyclohexyl)methyl]-carbamoyl}quinolin-2-yl)benzyl]carbamate], the IC50 [1] was 110 nM and the IC50 [2] was 1600 nM.

`Cc1ccc(-c2cc(C(=O)NC[C@H]3CC[C@H](CNC(=O)OC(C)(C)C)CC3)c3ccccc3n2)cc1` [Example 20, tert-Butyl ({trans-4-[({[2-(4-methylphenyl)quinolin-4-yl]carbonyl}amino)methyl]-cyclohexyl}methyl)carbamate] gave an IC50 [1] of 620 nM and an IC50 [2] of 1290 nM.

In the case of `CC(C)(C)OC(=O)NC[C@H]1CC[C@H](CNC(=O)c2cncc(-c3ccccc3)c2)CC1` [Example 44, tert-Butyl {[trans-4-({[(5-phenylpyridin-3-yl)carbonyl]amino}methyl)cyclohexyl]-methyl}carbamate], the IC50 [1] is reported as 9710 nM and the IC50 [2] is reported as 13000 nM.

`CC(C)(C)OC(=O)NC[C@H]1CC[C@H](CNC(=O)c2cc(-c3ccc(CNC(N)=O)cc3)nc3ccccc23)CC1` [Example 105, tert-Butyl {[trans-4-({[(2-{4-[(carbamoylamino)methyl]phenyl}quinolin-4-yl)carbonyl]amino}methyl)cyclohexyl]methyl}carbamate] showed an IC50 [1] of 30 nM and an IC50 [2] of 110 nM.

Compound `CCOC(=O)NC[C@H]1CC[C@H](CNC(=O)c2cc(-c3ccccc3)nc3ccccc23)CC1` [Example 62, Ethyl {[trans-4-({[(2-phenylquinolin-4-yl)carbonyl]amino}methyl)cyclohexyl]methyl}-carbamate] has an IC50 [1] of 2770 nM and an IC50 [2] of 3070 nM.

With `CC(=O)Nc1nc(C)sc1S(=O)(=O)NC[C@H]1CC[C@H](CNC(=O)OC(C)(C)C)CC1` [Example 77, tert-Butyl {[trans-4-({[(4-acetamido-2-methyl-1,3-thiazol-5-yl)sulfonyl]amino}methyl)-cyclohexyl]methyl}carbamate] the IC50 [1] was 3620 nM and the IC50 [2] was 9320 nM.

Compound `CSc1ccc(-c2cc(C(=O)NC[C@H]3CC[C@H](CNC(=O)OC(C)(C)C)CC3)c3ccccc3n2)cc1` [Example 24, tert-Butyl [(trans-4-{[({2-[4-(methylthio)phenyl]quinolin-4-yl}carbonyl)amino]-methyl}cyclohexyl)methyl]carbamate] has an IC50 [1] of 490 nM and an IC50 [2] of 1350 nM.

In the case of `Cc1nc(-c2cccc(S(=O)(=O)NC[C@H]3CC[C@H](CNC(=O)OC(C)(C)C)CC3)c2)no1` [Example 75, tert-Butyl ({trans-4-[({[3-(5-methyl-1,2,4-oxadiazol-3-yl)phenyl]sulfonyl}amino)-methyl]cyclohexyl}methyl)carbamate], the IC50 [1] is reported as 4270 nM and the IC50 [2] is reported as over 20000 nM.

Compound `CC(C)(C)OC(=O)NC[C@H]1CC[C@H](CNC(=O)c2cc(N3CCC(CCO)CC3)nc3ccccc23)CC1` [Example 189, tert-butyl [(trans-4-{[({2-[4-(2-hydroxyethyl)piperidin-1-yl]quinolin-4-yl}carbonyl)amino]methyl}cyclohexyl)methyl]carbamate] has an IC50 [1] of 70 nM and an IC50 [2] of 1960 nM.

Compound `COC[C@H](C)OC(=O)NC[C@H]1CC[C@H](CNC(=O)c2cc(-c3ccc(N4CCN(C)CC4)nc3)nc3ccccc23)CC1` (stereo in doubt) [Example 112, (1S)-2-Methoxy-1-methylethyl[(trans-4-{[({2-[6-(4-methylpiperazin-1-yl)pyridin-3-yl]quinolin-4-yl}carbonyl)amino]methyl}cyclohexyl)methyl]carbamate] has an IC50 [1] of 380 nM and an IC50 [2] of 2710 nM.

`C=CCN(C[C@H]1CC[C@H](CNC(=O)OC(C)(C)C)CC1)S(=O)(=O)c1ccc2ccccc2c1` [Example 84, tert-Butyl [(trans-4-{[allyl(2-naphthylsulfonyl)amino]methyl}cyclohexyl)methyl]-carbamate] gave an IC50 [1] of 4590 nM and an IC50 [2] of over 20000 nM.

`Cc1[nH]c(=O)ccc1-c1cc(C(=O)NC[C@H]2CC[C@H](CNC(=O)OC(C)(C)C)CC2)c2ccccc2n1` [Example 2, tert-Butyl ({trans-4-[({[2-(2-methyl-6-oxo-1,6-dihydropyridin-3-yl)quinolin-4-yl]carbonyl}amino)methyl]cyclohexyl}methyl)carbamate] was tested, and the IC50 [1] was 2960 nM and the IC50 [2] was over 20000 nM.

`CC(C)(C)OC(=O)NC[C@H]1CC[C@H](CNS(=O)(=O)c2ccc3c(c2)OCCO3)CC1` [Example 69, tert-Butyl [(trans-4-{[(2,3-dihydro-1,4-benzodioxin-6-ylsulfonyl)amino]methyl}cyclo-hexyl)methyl]carbamate] showed an IC50 [1] of 4760 nM.

— patent US20090306133A1, “New Acetyl Coenzyme A Carboxylase (ACC) Inhibitors And Uses In Treatments Of Obesity And Diabetes Mellitus - 087” (ASTRAZENECA AB, priority 2007, published 2009)
